Results: patent US7928186B2, “Cell permeable bioactive peptide conjugates” (Phoenix Pharmaceuticals, Inc., priority 2006, dated 2011)
Bridge positions count the residues as written; N and C are the ends. Ends that are not written are not given here. * marks the point of attachment. Acm = CC(=O)NC*

Experiments:
[1] = tested on: dissociate and cultured cortical neurons; assay: Mobilization of intracellular Ca2+ in dissociate cultured cortical neurons (Fura-2 AM fluorescence); type: cell-based, rat (newborn Sprague-Dawley)
Description: Neurons can be isolated from cerebral cortex according to the protocols for postnatal dissociated nuerons as disclosed for example by Huettner, J. E. and Baughman, R. W., Primary Culture of Identified Neurons From the Visual Cortex of Postnatal Rats, Journal of Neurosciences 6; 3044-3060 (1986); Brewer, G. J., Isolation and Culture of Adult Rat Hippocampal Neurons, Journal of Neuroscience Methods, 71:143-155 (1997); and Brailoiu et al., NAADP Potentiates Neurite Outgrowth, Journal of Biological Chemistry (in press), each hereby incorporated by reference. Newborn Sprague-Dawley rates (about 1 day to about 4 days old) were killed by cervical dislocation. Cerebral cortex was removed and quickly immersed in ice-cold phosphate buffer solution. After removal of meninges, tissue was minced into about I-millimeter blocks, incubated for about 45 minutes at 37° C. in Hanks balanced salt solution without Ca^2+ and Mg^2+ (Invitrogen, 1600 Faraday Avenue, Carlsbad, Calif. 92008) and supplemented with about 200 ug/mL penicillin, 0.1% EDTA and papain 0.15 mg/mL (Sigma-Aldrich, St. Louis, Mo.). In accordance with the procedure disclosed by Brewer, the tissue can be further dissociated by gentle mechanical trituration. After centrifugation at 500×g, cells can be re-suspended in fetal serum free media containing Neurobasal-ATM medium supplemented with […], 100 unites penicillin, 100 ug streptomycin, and B27 supplement all of which can be obtained for example from Invitrogen. The resulting cells can be plated at a low density of about 10^4 on round glass coverslips in twenty four well plates. Neurons were cultured at 37° C. in […] and 5% carbon dioxide for about 3 days to about 5 days. The mitotic inhibitor, cytosine P-arabino furanosidde (about 1 μM) which can be obtained from Sigma-Aldrich can be added to cultured neurons to inhibit glial cell proliferation according to the procedure disclosed by Billingsley, M. L. and Mandel, H. G., Effects of DNA Synthesis Inhibitors on Post-Traumatic Glial Cell Proliferation, Journal of Pharmacology and Experimental Therapeutics, 222: 765-770 (1982).
Measurement of mobilized intracellular calcium ion (Ca^2+) in dissociate cultured neurons in response to peptide fragments of HIV-1 Tat polypeptides can be performed as disclosed by Brailoiu E. et al. Neurons cultured about 24 hours on coverslips as above-described were loaded in HBBS with 5μ Fura-2 AM dye at room temperature (about 20° C.) for about 45 minutes in the dark, then washed three times with Fura-2 AM free buffer and allowed to incubate to allow de-esterification of the dye for about 45 minutes. Under these conditions, compartmentalization of the dye was minimal (about 9.2%±0.2% n=6) as judged from the ratio of fluorescence signals after selective permeabilization of the plasma membrane (10 μM β-escein) and full permeabilization of the cultured cells (60 μg/mL saponin). The coverslips were mounted in a custom designed bath on the stage of a S300 Axiovert […] inverted microscope equipped with a C&L Instruments fluorimeter as described by Brailoiu et al. The Fura-2 fluorescent signal was calibrated by successive addition of 20 μg/mL digitonin, 20 mM EDTA, and 0.5 mM MnCl2.
Table 1. Effect of HIV1-Tat Polypeptides on [Ca^2+] Response in Dissociate and Cultured Cortical Neurons

humans = settings: infusion of normal postprandial concentrations, over 24 h; cited from earlier work
[2] = tested on: rat medulla oblongata (NTS, RVLM); settings: cited from earlier work

| Substance | [Ca^2+] response ([1]; n = 5-10) | also measured |
| --- | --- | --- |
| HIV1 30-57 (Cys30-Cys34)(Cys 31-Cys37) (CCFHCQVCFITKALGISYGRKKRRQRRR; disulfide 1-5, 2-8) [HIV1 30-57 (Cys30-Cys34)(Cys31-Cys37)] | 528 ± 60 nM |  |
| HIV1 48-84 (GRKKRRQRRRAHQNSQTHQASLSKQPTSQPRGDPTGP; Human immunodeficiency virus type 1) [peptide fragment of the HIV1 30-86 peptide] | 80 ± 28 nM |  |
| HIV1 30-47 (Cys30-Cys34)(Cys31-Cys37) (CCFHCQVCFITKALGISY; disulfide 1-5, 2-8) [HIV1 30-47 (Cys 30-Cys34)(Cys 31-Cys37), HIV1 Tat fragment which lacks the second transport peptide region] |  | [Ca^2+] response ([1]; n = 5-10 in a column of its own, listed as 30-47 (Cys 30-Cys34)(Cys 31-Cys37)): No Response; [Ca^2+] response ([1]; n = 5-10 in a column of its own, listed as HIV1 30-47 (Cys30-Cys34)(Cys31-Cys37)): cannot mobilize intracellular calcium ion |
| HIV1 41-60 (KALGISYGRKKRRQRRRAHQ; Human immunodeficiency virus type 1) [peptide fragment of the HIV1 30-86 peptide] | 66 ± 13 nM |  |
| Peptide YY(3-36) [PYY(3-36)] |  | reduction of food intake (humans): 33% |
| HIV1 61-80 (NSQTHQASLSKQPTSQPRGD; Human immunodeficiency virus type 1) [peptide fragment of the C-terminal region of the HIV1 30-86 peptide] | 56 ± 20 nM |  |
| HIV1 30-57 (Cys31-Cys37)(Cys 31-ACM)(Cys34-ACM) (C(Acm)CFHC(Acm)QVCFITKALGISYGRKKRRQRRR; disulfide 2-8) [HIV1 30-48 (Cys 30 ACM)(Cys 31-Cys 37 disulfide)(Cys 34 ACM) with transport region HIV1 49-57] | 197 ± 35 nM |  |
| HIV1 30-57 (Cys30-Cys31)(Cys 34-Cys37) (CCFHCQVCFITKALGISYGRKKRRQRRR; disulfide 1-2, 5-8) [HIV1 30-57 (Cys30-Cys31)(Cys34-Cys37)] | 258 ± 54 nM |  |
| HIV1 30-86 (Cys30-Cys34)(Cys31-Cys37) (CCFHCQVCFITKALGISYGRKKRRQRRRAHQNSQTHQASLSKQPTSQPRGDPTGPKE; disulfide 1-5, 2-8) | 390 ± 21 nM |  |
| HIV1 30-57 (Cys30-Cys37)(Cys 31-Cys34) (CCFHCQVCFITKALGISYGRKKRRQRRR; disulfide 1-8, 2-5) [HIV1 30-57 (Cys30-Cys37)(Cys31-Cys34), 14] | 197 ± 46 nM |  |
| HIV1 58-86 (AHQNSQTHQASLSKQPTSQPRGDPTGPKE; Human immunodeficiency virus type 1) [peptide fragment of the C-terminal region of the HIV1 30-86 peptide] | 54 ± 28 nM |  |
| RKKRRQRRR (Human immunodeficiency virus type 1) [HIV1 49-57, Tat transduction domain, transport peptide region alone] | No Response |  |
| HIV1 32-62 (Cys34-Cys37): HIV1 Tat polypeptide fragment 32-62 with Cys34-Cys37 disulfide (FHCQVCFITKALGISYGRKKRRQRRRAHQNS; disulfide 3-6) | 752 ± 59 nM |  |
| Apelin: endogenous ligands at the orphan G-protein coupled receptor, APJ (QRPRLSHKGPMPF; Apelin-13; UniProt Q9ULZ1 65-77, looked up) |  | increase in arterial pressure ([2]; microinjection into either of the NTS and the RVLM): 10-20 mm Hg; decreased phrenic nerve discharge amplitude ([2]; microinjection into the NTS): up to 30% |
| HIV1 62-86 (SQTHQASLSKQPTSQPRGDPTGPKE; Human immunodeficiency virus type 1) [peptide fragment of the C-terminal region of the HIV1 30-86 peptide] | No Response |  |
